# Measured values from patent publication US12691124B2, “Methods of controlling and improving brain health” (ICAHN SCHOOL OF MEDICINE AT MOUNT SINAI, priority 2019, dated 2026).
# What was measured:
# [1] = test system: wild type and APP/PS1-21 mice; settings: cited from earlier work
# 3xTg mouse model = settings: prolonged JQ1 treatment; cited from earlier work
# CK-p25 mice = experiment: p25 (CK-p25) mouse model of Alzheimer's disease; type: in vivo
# microglia = experiment: Microglia depletion by PLX in wild type mice; settings: mouse, in vivo
# Text: These models both have strong inflammatory components to their pathology; however it is important to understand the mechanism by which IBET858 improves symptoms. If the pathology is driven by microglial-mediated inflammation, it was hypothesized that depleting microglia from the brain should prevent neuronal degeneration and memory deficits as well. Therefore a pharmacological approach was used to deplete microglia in vivo by inhibiting the colony stimulating factor receptor 1 (CSF1R) which is required for microglial survival and kills 99% of microglia in one week in wild type mice. Elmore et al., “Colony-Stimulating Factor 1 Receptor Signaling is Necessary for Microglia Viability, Unmasking a Microglia Progenitor Cell in the Adult Brain,” Neuron 82:380-397 (2014), which is hereby incorporated by reference in its entirety.
# First, the PLX5622-mediated mediated reduction in microglia numbers is not sufficient to reduce inflammatory gene expression to the level that not only allows neuronal survival but also normal function. Second, while IBET858 clearly dampens microglia-mediated inflammation, its neuroprotective effect cannot be solely attributed to microglia and may in fact be a combinatorial effect on other cell types in the brain.
# primary cortical neurons [2] = experiment: Neuronal longevity in primary cortical neuron culture (LDH, propidium iodide, cleaved caspase 3); type: cell-based, mouse; settings: PLX5622 together with IBET858
# Text: Primary Cortical Neuron Culture. Embryonic day 18 (E18) timed-pregnant female mice were anesthetized with CO2 and sacrificed by cervical dislocation. In a dissection hood, 24-26 embryos per experiment were collected through an incision of the mother's abdomen, taken out of the amniotic sacs and decapitated in ice cold Hank's Balanced Salt Solution (HBSS). Using fine scissors and forceps, brains were rapidly dissected and the cortex cleared from meninges and isolated under a dissection microscope. Cortices were collected in ice cold HBSS and kept on ice until all embryos had been dissected. In a tissue culture hood, HBSS was removed and the cortex tissue digested by 0.25% Trypsin-EDTA for 12 minutes at 37° C., followed by DNase1 treatment for 10 minutes at 37° C. The tissue was dissociated by serial trituration with a 25 ml serological pipette, followed by trituration with 10 ml and 5 ml serological pipettes. Cell suspension was washed once with DMEM medium, supplemented with 10% FBS and 1% penicillin/streptomycin and passed through a […] cell strainer before counted on a hemocytometer. Single cells were seeded on poly-D-lysine (0.1 mg ml-1) coated wells at a density of 1×10^6 cells per well on a 12-well plate. Cells were grown in Neurobasal medium, complemented with B27 supplement, N2 supplement, and 0.5 mM L-glutamine and maintained at 37° C. in 5% CO2 for 1 week. Cultures were treated with DMSO (0.2%), I-BET858 (1 μM, 0.2% DMSO), BDNF (50 ng/ml), or BDNF+I-BET858 for 2 and 12 h on day 7 in vitro. Cultures were washed with phosphate-buffered saline (PBS) on ice and processed for RNA isolation using TRIzol/Chloroform extraction.
# LDH Assay. LDH activity was measured using the Pierce LDH Cytotoxicity Assay Kit. Culture media was incubated with an equal volume of LDH master mix and incubated for 30 minutes at room temperature in the dark. After, the same volume of stop reagent was added and the absorbance was measured at 490 and 680 nm. Maximum LDH measurements were obtained by adding lysis buffer to release the total amount of LDH in the sample. LDH release is calculated as a percent of the maximum.
# Propidium Iodide Assay. Propidium iodide (1 mg/ml, Life Technologies #P3566) was added to each culture well at a final concentration of 0.5 μg/ml. Cultures were incubated for 30 minutes at 37 degrees then washed with PBS. Cells were then fixed with 4% paraformaldehyde in PBS for 15 minutes at room temperature. After fixation, cells were washed with PBS and then mounted using mounting media containing DAPI.
# In order to understand the effect of chronic BET inhibition on neuronal survival, primary cortical mouse neurons were cultured in the presence or absence of the brain permeable BET inhibitor IBET858 (1 μM). To quantify cell death over time, the levels of lactate dehydrogenase (LDH) were measured in culture media which is presumably released during cell death as the membranes become permeable. […] The observed decrease in LDH activity after BET inhibition occurs in a dose-dependent manner. LDH activity, which is an indirect measure of cell death, may be affected by other factors such as changes in metabolism or expression of the LDH genes. Therefore in order to confirm these findings, propidium iodide (PI) staining was used to directly quantify the number of dead neurons over time. This membrane impermeable dye increases in fluorescence 20-30 fold after intercalating DNA265. […] To give context to the magnitude of this effect on survival, this experiment was repeated with a direct comparison to the mTOR inhibitor, rapamycin (20 nM).
# BET proteins = settings: cited from earlier work
# primary cortical neurons [3] = experiment: Polar metabolite mass spectrometry in primary cortical neurons; type: cell-based, mouse; settings: acute exposure 24 h, 50 nM
# Procedure: Mass Spectrometry. Cell culture plates (2e6 cells per well n=7-8 per group) were washed with 75 mM Ammonium bicarbonate, pH 7.4, warmed to 37 degrees. Plates were quenched on liquid nitrogen for 10 seconds and then placed on dry ice. 1 ml of 70% Ethanol in MS-grade water was warmed to 75 degrees and added to each well. Plates were incubated in a 75 degree water bath for 3 minutes, shaking gently every minute. After 3 minutes, plates were placed on dry ice and once cooled, supernatants were lyophilized using the speed vacuum and stored at −80 degrees. Samples were shipped on dry ice to Cellzome who processed the samples for mass spectrometry and performed the initial analysis annotating metabolites. A semi-quantitative approach was used which determines the metabolite levels relative to a control rather than absolute concentrations. All detected ions were used for statistical analysis regardless of how many samples they were detected. This allows for the identification of low-abundant metabolites that may be present in only a subset of samples.
# If IBET858 is indeed decreasing metabolism as indicated, comprehensive metabolic changes after BET inhibition should be observed. Therefore, an unbiased analysis of polar metabolites via mass spectrometry was employed (FIGS. 12A-12C). Accordingly, the levels of 100-150 unique metabolites are changed by chronic BET inhibition in primary cortical neurons.
smiles,measurement,setting,value
Cc1sc2c(c1C)C(c1ccc(Cl)cc1)=N[C@@H](CC(=O)OC(C)(C)C)c1nnc(C)n1-2 [JQ1],cognitive deficits in APP/PS1-21 mouse model,[1]; APP/PS1-21,rescued cognitive deficits
same,"memory, fear conditioning paradigm in wild type mice",[1]; wild type mice,enhanced memory
same,level of phosphorylated tau,3xTg mouse model,decreased
same,memory and learning deficits,3xTg mouse model,did not have any effect
COc1ncc(F)cc1CNc1ccc(Cc2c[nH]c3ncc(C)cc23)c(F)n1 [PLX5622],number of microglia compared to wild-type controls,CK-p25 mice; CK-p25 mice treated with PLX,twice the number of microglia
same,contextual recall (memory deficits),CK-p25 mice; PLX5622,made contextual recall worse
same,neuronal and synapse loss,CK-p25 mice; PLX5622,prevented neuronal and synapse loss
same,microglia after PLX in wild type mice,microglia,fully depleted
same,neuronal longevity after IBET858 on pharmacological depletion of microglia,primary cortical neurons [2],did not alter longevity
"Oc1ccc(C=Cc2cc(O)cc(O)c2)cc1 [Resveratrol, resveratrol]",inhibition of BET proteins,BET proteins,weakly inhibit
"C=C(C)[C@H]1Cc2c(ccc3c2O[C@@H]2COc4cc(OC)c(OC)cc4[C@@H]2C3=O)O1 [Rotenone, reference compound]",metabolites changed,primary cortical neurons [3],300-500 metabolites
